# Biological target: USP1 (construct USP1 (I-785, GG670, 671AA)/UAF1 (I-677)-Flag) (Homo sapiens (Human), UniProt O94782, G670A/G671A)
# Test: Ubiquitin-Rhodamine 110 assay for USP1 activity
# Format: biochemical
# Conditions: USP1/UAF1 25 pM, Ub-Rh110 25 nM, 30 min preincubation
# Method in brief: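 Two formats with the USP1/UAF1 complex and 25 nM ubiquitin-rhodamine 110 in pH 8.0 Tris buffer with calcium, glutathione and detergent. Single-point screening used 10 µM, 100 pM enzyme and 45 min. Inhibition was set against no-enzyme and DMSO wells.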
# Sequence of USP1 (construct USP1 (I-785, GG670, 671AA)/UAF1 (I-677)-Flag) (O94782 whole entry G670A/G671A): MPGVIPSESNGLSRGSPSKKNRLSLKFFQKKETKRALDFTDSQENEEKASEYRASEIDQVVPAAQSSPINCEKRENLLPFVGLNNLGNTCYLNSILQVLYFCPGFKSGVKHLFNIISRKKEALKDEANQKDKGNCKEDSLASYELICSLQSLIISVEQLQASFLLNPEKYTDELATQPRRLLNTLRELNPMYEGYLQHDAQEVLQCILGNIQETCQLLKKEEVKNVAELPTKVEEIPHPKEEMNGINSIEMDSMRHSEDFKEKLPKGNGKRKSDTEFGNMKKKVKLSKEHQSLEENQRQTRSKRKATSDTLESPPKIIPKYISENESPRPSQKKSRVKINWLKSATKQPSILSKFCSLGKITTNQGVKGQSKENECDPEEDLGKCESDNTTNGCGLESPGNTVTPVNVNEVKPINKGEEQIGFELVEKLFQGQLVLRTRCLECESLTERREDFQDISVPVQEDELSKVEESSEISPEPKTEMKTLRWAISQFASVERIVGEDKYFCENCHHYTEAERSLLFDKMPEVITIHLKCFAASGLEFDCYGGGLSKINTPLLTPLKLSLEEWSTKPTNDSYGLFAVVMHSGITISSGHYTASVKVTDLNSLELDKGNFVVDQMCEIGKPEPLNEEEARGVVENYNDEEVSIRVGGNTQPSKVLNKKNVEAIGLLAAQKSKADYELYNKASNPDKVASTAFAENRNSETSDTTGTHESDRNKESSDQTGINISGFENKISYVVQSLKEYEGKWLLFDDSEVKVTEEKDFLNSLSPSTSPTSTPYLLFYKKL
# Sequence of USP1 (construct USP1 (I-785, GG670, 671AA)/UAF1 (I-677)-Flag) (Q8TAF3 whole entry partner): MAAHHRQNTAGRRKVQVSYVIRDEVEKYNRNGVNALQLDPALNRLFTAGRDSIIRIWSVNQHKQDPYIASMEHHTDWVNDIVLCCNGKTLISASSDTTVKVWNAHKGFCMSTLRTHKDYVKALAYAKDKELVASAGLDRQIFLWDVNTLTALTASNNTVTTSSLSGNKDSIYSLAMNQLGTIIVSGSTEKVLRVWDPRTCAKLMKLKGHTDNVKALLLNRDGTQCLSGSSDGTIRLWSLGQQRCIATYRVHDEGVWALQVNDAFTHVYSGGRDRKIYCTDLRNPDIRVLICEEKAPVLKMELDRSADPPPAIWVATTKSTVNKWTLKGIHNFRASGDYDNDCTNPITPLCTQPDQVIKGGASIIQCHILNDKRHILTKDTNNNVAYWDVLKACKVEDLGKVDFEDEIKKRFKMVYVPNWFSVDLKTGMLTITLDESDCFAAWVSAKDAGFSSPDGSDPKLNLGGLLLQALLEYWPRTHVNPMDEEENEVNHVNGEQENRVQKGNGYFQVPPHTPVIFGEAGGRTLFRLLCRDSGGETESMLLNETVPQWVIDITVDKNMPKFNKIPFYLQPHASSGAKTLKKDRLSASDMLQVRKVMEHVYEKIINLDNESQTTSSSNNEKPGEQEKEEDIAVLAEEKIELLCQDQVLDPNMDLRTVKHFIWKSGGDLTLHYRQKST
row,SMILES,IC50
1,"CC(C)c1ccccc1-c1ncc2c(n1)n(Cc1ccc(-c3ccnn3C(C)C)cc1)c(=O)n2C [Compound I-284, 9-(4-(1-isopropyl-1H-pyrazol-5-yl)benzyl)-2-(2-isopropylphenyl)-7-methyl-7,9-dihydro-8H-purin-8-one]",200 to 2000 nM
2,"CC(C)c1ccccc1-c1ncc2c(n1)n(Cc1ccc(-c3cnnn3C)cc1)c(=O)n2C [Compound I-285, 2-(2-isopropylphenyl)-7-methyl-9-(4-(1-methyl-1H-1,2,3-triazol-5-yl)benzyl)-7,9-dihydro-8H-purin-8-one]",200 to 2000 nM
3,"CC(C)c1ccccc1-c1ncc2c(n1)n(Cc1ccc(-c3nnc4ccccn34)cc1)c(=O)n2C [Compound I-286, 9-(4-([1,2,4]triazolo[4,3-a]pyridin-3-yl)benzyl)-2-(2-isopropylphenyl)-7-methyl-7,9-dihydro-8H-purin-8-one]",< 50 nM
4,"CC(C)c1ccccc1-c1ncc2c(n1)n(Cc1ccc(-c3cn(C)nn3)cc1)c(=O)n2C [Compound I-287, 2-(2-isopropylphenyl)-7-methyl-9-(4-(1-methyl-1H-1,2,3-triazol-4-yl)benzyl)-7,9-dihydro-8H-purin-8-one]",< 50 nM
5,"CC(C)c1ccccc1-c1ncc2c(n1)n(Cc1ccc(-c3ncn(C)c3CO)cc1)c(=O)n2C [Compound I-288, 9-(4-(5-(hydroxymethyl)-1-methyl-1H-imidazol-4-yl)benzyl)-2-(2-isopropylphenyl)-7-methyl-7,9-dihydro-8H-purin-8-one]",200 to 2000 nM
6,"CC(C)c1ccccc1-c1ncc2c(n1)n(Cc1ccc(-c3nccn4ccnc34)cc1)c(=O)n2C [Compound I-289, 9-(4-(imidazo[1,2-a]pyrazin-8-yl)benzyl)-2-(2-isopropylphenyl)-7-methyl-7,9-dihydro-8H-purin-8-one]",< 50 nM
7,"Cc1coc(-c2ccc(Cn3c(=O)n(C)c4cnc(-c5ccccc5C(C)C)nc43)cc2)n1 [Compound I-290, 2-(2-isopropylphenyl)-7-methyl-9-(4-(4-methyloxazol-2-yl)benzyl)-7,9-dihydro-8H-purin-8-one]",< 50 nM
8,"CC(C)c1ccccc1-c1ncc2[nH]c(=O)n(Cc3ccc(-c4nccn5ccnc45)cc3)c2n1 [Compound I-291, 9-(4-(imidazo[1,2-a]pyrazin-8-yl)benzyl)-2-(2-isopropylphenyl)-7,9-dihydro-8H-purin-8-one]",< 50 nM
9,"CC(C)c1ccccc1-c1ncc2[nH]c(=O)n(Cc3ccc(-c4nc(N5CCOCC5)n(C)n4)cc3)c2n1 [Compound I-292, 2-(2-isopropylphenyl)-9-(4-(1-methyl-5-morpholino-1H-1,2,4-triazol-3-yl)benzyl)-7,9-dihydro-8H-purin-8-one]",50 to 200 nM
10,"CC(C)c1ccccc1-c1ncc2[nH]c(=O)n(Cc3ccc(-c4nc(C(F)(F)F)n(C)n4)cc3)c2n1 [Compound I-293, 2-(2-isopropylphenyl)-9-(4-(1-methyl-5-(trifluoromethyl)-1H-1,2,4-triazol-3-yl)benzyl)-7,9-dihydro-8H-purin-8-one]",< 50 nM
11,"Cc1nc(-c2ccc(Cn3c(=O)[nH]c4cnc(-c5ccccc5C(C)C)nc43)cc2)nn1C [Compound I-294, 9-(4-(1,5-dimethyl-1H-1,2,4-triazol-3-yl)benzyl)-2-(2-isopropylphenyl)-7,9-dihydro-8H-purin-8-one]",< 50 nM
12,"COc1nc(-c2ccc(Cn3c(=O)[nH]c4cnc(-c5ccccc5C(C)C)nc43)cc2)nn1C [Compound I-295, 2-(2-isopropylphenyl)-9-(4-(5-methoxy-1-methyl-1H-1,2,4-triazol-3-yl)benzyl)-7,9-dihydro-8H-purin-8-one]",< 50 nM
13,"Cc1nc(-c2ccc(Cn3c(=O)[nH]c4cnc(-c5ccccc5C(C)C)nc43)cc2)n(C)n1 [Compound I-296, 9-(4-(1,3-dimethyl-1H-1,2,4-triazol-5-yl)benzyl)-2-(2-isopropylphenyl)-7,9-dihydro-8H-purin-8-one]",< 50 nM
